Assay results published in patent US20190380986A1, “METHOD FOR PRODUCING EXTRACTS ENRICHED WITH SULFOXIDE-FREE ORGANOSULFUR COMPOUNDS, S-ALKENYL-LCYSTEINE AND S-ALKYL-LCYSTEINE, FROM PLANT RAW MATERIALS, AND USES THEREOF IN THE TREATMENT OF INFLAMMATORY DISEASES” (CANVAX BIOTECH, S.L, priority 2017, published 2019).
“Also recorded” adds a separate entry of the source. Structures can show the parent of a compound that is named as a salt.

Legend:
Type in all cases: in vivo, Dark Agouti rats
[1] = system: EAE (experimental autoimmune encephalomyelitis); assay: Clinical assessment of mobility in rats with EAE induced by MOG/FCA; settings: for Change in the clinical assessment of mobility between day 35 and day 14: Example 3, NAC and SAC oral 50 mg/kg, treatment for 21 days, FIG. 3; for Change in the clinical assessment of mobility between days 35 and 14: FIG. 5
Protocol: Next, an experiment was designed to study the effect of SAC in rats with EAE (experimental autoimmune encephalomyelitis), a model of multiple sclerosis widely used for the development of new treatments for this neurodegenerative disease in humans. To evaluate the effect of this compound on the disease, the change in clinical parameters of mobility in each of the joints and in the tail (clinical score or clinical assessment) was measured, as well as the biomarkers of oxidative stress that explain the change in joint mobility in rats.
(§1) 70 Dark Agouti rats were used, 35 females and 35 males. Each group of 10 animals had 5 male rats housed in individual boxes and 5 females equally maintained in individual boxes. The following groups were included: i) Controls (untreated healthy animals); ii) vehicle (animals injected in the tail with 100 microlitres of Freund's complete adjuvant (FCA) but without the EAE-inducing peptide, the MOG peptide ([…]); iii) EAE (animals injected once into the tail with 150 μg of MOG (Sigma-Aldrich) in 100 microlitres of FCA); iv) EAE+dimethyl fumarate (EAE+DMF); v) EAE+N-acetyl cysteine (EAE+NAC); and vi) EAE+SAC. The treatments with NAC and SAC were administered to the animals orally using a probe and at a dose of 50 mg/kg of animal weight.
The mobility of the rats was evaluated using the method described by Pérez-Nievas (Pérez-Nievas, 2010) in which 0 is equivalent to not having any affected joint or tail; 1 equals paralysis in the tail; 2 equals partial mobility in the hind legs; 3 equals paralysis in the hind legs; 4 equals paralysis in the hind legs and partial mobility in the front legs and 5 equals a dying animal or that must be sacrificed for ethical reasons.
(§2) The statistical analysis was performed with the SPSS program (SPSS Ibérica, Madrid, Spain). The data are reported as mean±standard deviation (SD). […] To analyse the correlation between the biochemical parameters and the mobility of the animals at 35 days (Clinical assessment-35), Spearman's rho correlation coefficient was used. The level of statistical significance was established at p<0.05.
Next, an experiment was designed to study whether the effect of NAC and SAC were different depending on the dose administered in animal models of EAE. For this, the change in clinical parameters of mobility in each of the joints and the tail (clinical score or clinical assessment) was measured at 2 different doses of NAC and SAC; 18 mg/kg and 50 mg/kg administered orally for 5 days a week and following the same experimental design as Example 3.
(§3) 70 Dark Agouti rats, 35 females and 35 males, were used. Each group of 10 animals had 5 male rats housed in individual boxes and 5 females equally maintained in individual boxes. The following groups were included: i) Controls (untreated healthy animals); ii) vehicle (animals injected in the tail with 100 microlitres of Freund's complete adjuvant (FCA) but without the EAE-inducing peptide, the MOG peptide; iii) EAE (animals injected 1 time in the tail with 150 μg of MOG (Sigma-Aldrich) in 100 microlitres of FCA); iv) EAE+N-acetyl cysteine at 18 mg/kg (EAE+NAC18); v) EAE+N-acetyl cysteine at 50 mg/kg (EAE+NACSO); vi) EAE+SAC at 18 mg/kg (EAE+SAC18) and vii) EAE+SAC at 50 mg/kg (EAE+SAC50). The treatments with NAC and SAC were administered to the animals orally 5 days a week at a dose of 18 mg/kg or 50 mg/kg of the animal's weight.
The analysis of the mobility of the animals, their sacrifice, tissue management, determination of the total proteins and the statistical analysis, was carried out as previously described in Example 3.

[2] = system: GSH/GSSG ratio and lipoperoxides (LPO); assay: Biomarkers of oxidative stress (LPO, GSH/GSSG ratio) in brain and spinal cord of EAE rats; settings: FIG. 4; for GSH/GSSG ratio in brain and spinal cord: Example 3, end of study (35 days), NAC and SAC oral 50 mg/kg, versus untreated EAE
From the text: as §1
At the end of the study, the animals were decapitated at a controlled temperature using intraperitoneal anaesthesia with ketamine 75 mg/kg (Imalgene 100 mg/ml, Merial Laboratories, Barcelona, Spain). The brains, blood and spinal cord were extracted, weighed and homogenized with a mechanical homogenizer (Tempest Virtis), using 20 mM Tris at pH 7.4 as a buffer. The samples were centrifuged cold and the supernatants were immediately collected and stored at −80° C.
Total protein levels were quantified by the Bradford method and referenced to the original tissue weight. Oxidative stress parameters such as lipid peroxidation (LPO), total glutathione (tG) and reduced glutathione (GSH) were then measured in blood, brain and spinal cord using kits from Bioxytech SA (Oxis International, Portland, Oreg., USA): LPO-586, GSH-420 and GSH-400, respectively. Oxidised glutathione levels (GSSG) were calculated by subtracting reduced glutathione from total glutathione and the GSH/GSSG ratio was calculated.
as §2

[3] = system: LBP (lipopolysaccharide binding protein); assay: Soluble LBP levels (ELISA) in brain, spinal cord and blood of EAE rats; settings: authors' observation in the background section
Protocol: as §3, with “weight. […]” for “weight.”
(§4) The measurement of lipopolysaccharide-binding soluble lipoprotein (LBP) levels was performed with the LBP soluble ELISA Kit (Enzo®, USA), in a sandwich ELISA system following the manufacturer's instructions. The levels of lipopolysaccharide (LPS) in blood and spinal cord were measured with the Pierce LAL Chromogenic endotoxin quantification kit supplied by Thermo Scientific (USA), following the manufacturer's instructions.® The data are presented as endotoxin units per milligram of tissue protein.

[4] = system: LPS (bacterial lipopolysaccharide); assay: LPS levels (LAL chromogenic endotoxin kit) in blood and spinal cord of EAE rats; settings: Example 4, 50 mg/kg orally, SAC compared to NAC at the same concentration, FIG. 7
Protocol: as §3, with “weight. […]” for “weight.”
as §4

[5] = Example 4, 18 mg/kg orally 5 days a week
[6] = Example 4, 50 mg/kg orally 5 days a week

SMILES | Change in the clinical assessment of mobility between day 35 and day 14 [1] | GSH/GSSG ratio in brain and spinal cord [2] | Change in the clinical assessment of mobility between days 35 and 14 [1, 5] | Change in the clinical assessment of mobility between days 35 and 14 [1, 6] | Level of LBP after administration in animal models (pro-inflammatory effect) [3] | Oxidative damage induced by MOG/FCA (LPO, GSH/GSSG), SAC compared with NAC ([2]; Example 3, oral 50 mg/kg, 35 days) | Levels of LPS in blood and spinal cord [4]
COC(=O)/C=C/C(=O)OC [DMF, dimethyl fumarate] | showed a reduction of the clinical assessment of mobility between day 35 and 14 | increased the GSH/GSSG ratio with respect to untreated animals (EAE); also recorded: induces an increase in the GSH/GSSG ratio | – | – | – | – | –
CC(=O)N[C@@H](CS)C(=O)O [NAC, N-acetylcysteine] | showed a reduction of the clinical assessment of mobility between day 35 and 14 | increased the GSH/GSSG ratio with respect to untreated animals (EAE); also recorded: induces an increase in the GSH/GSSG ratio | did not cause a reduction of the clinical assessment of mobility between days 35 and 14 | equally effective with respect to the group of animals with EAE without treatment | the level of LBP (lipopolysaccharide binding protein) increases | – | –
C=CCSC[C@H](N)C(=O)O [SAC, S-allyl-L-cysteine] | showed a reduction of the clinical assessment of mobility between day 35 and 14 | increased the GSH/GSSG ratio with respect to untreated animals (EAE); also recorded: induces an increase in the GSH/GSSG ratio | caused a reduction in the clinical assessment of mobility equivalent to that caused by 50 mg/kg of NAC or SAC | equally effective with respect to the group of animals with EAE without treatment | – | more effective than NAC in minimising oxidative damage induced by MOG/FCA; also recorded: corrects the oxidative damage induced by MOG/FCA to a higher percentage than the NAC | significantly reduced the levels of LPS in blood and spinal cord compared to NAC
